{"source": "patent US20060029576A1", "about": "“Biological control of pythium disease in crops” (HER MAJESTY THE QUEEN IN RIGHT OF CANADA, THE MINISTER OF …, priority 2004, published 2006)", "format_in_all_cases": "in vivo", "key": {"[1]": {"system": "Pythium spp. (predominantly Pythium sp. ‘group G’)", "experiment": "Seed treatment of field pea cv. Trapper, damping-off field experiment 2004", "settings": "for Plant Height (cm): 6-node stage (4 weeks after planting)", "description": "(§1) The strains of Rhizobium leguminosarum bv. viceae used for the study were 99A1, R12, R20, and R21. Strain 99A1 was originated from the commercial pea inoculant produced by Agrium, Inc. Calgary, Alberta. Bacterial cultures were grown on tryptone-yeast agar (TYA) (Beringer, 1974) in Petri dishes for 48 h at room temperature (20±2° C.). The resulting colonies were suspended in 5 ml per dish of 1% methyl cellulose (Sigma-Aldrich, Milwaukee, Wis.) in sterile distilled water, and scraped gently with a spatula to obtain bacterial slurries. Seeds of field pea cv. Trapper and lentil cv. Laird were soaked for 20 minutes in the slurries, spread on a metallic mesh sheet with paper towel underneath to absorb the excess slurry, and air-dried overnight under a fume hood. Enumeration of bacteria coated onto seeds was done by placing 5 seeds in a test tube with 5 ml of sterile distilled water, vortexing for 30 sec, and plating serial dilutions on TYA, 0.1 ml per 9-cm dish. After incubation at room temperature for 3 days, bacterial colonies developed in each dish were counted. There were two replicates for each treatment.\n(§2) Field experiments were conducted at the Agriculture and Agri-Food Canada Research Centre near Lethbridge, Alberta, Canada, in a field naturally infested with Pythium spp. (predominantly Pythium sp. ‘group G’). For the pea experiment, seeds were planted using a plot seeder on 28 May 2004, in 4-row plots with a row length of 5 m, a row spacing of 22.5 cm, and a plant spacing of 5 cm (i.e. 20 seeds/m). Untreated seeds and fungicide-treated seeds (Thiram™ at the rate of 30 g/25 kg seed) (Gustafson; Calgary, Alberta, Canada) were used as controls. Treatments were arranged in a randomized block design with 6 replicates. For the lentil experiment, seeds were planted on the same date and using the same parameters as for field pea.\n(§3) Seedling emergence for each plot was determined. The number of healthy seedlings and the number of wilted seedlings were counted in the middle 3 m of each row, and the percent loss due to pre-emergent and post-emergent damping-off were calculated, as well as the final stand establishment. The causal agent of seedling death was determined by collecting 10 non-emerged seedlings and all of the wilted seedlings from each plot, washing in running water, surface sterilizing in 70% ethanol for 90 sec, incubating on potato dextrose agar (PDA) in Petri dishes at room temperature for 7 days, and examining the organisms derived from each sample. Results of reisolation of diseased seedlings were used to calculate the incidence of damping-off due to Pythium spp. for each plot.\n(§4) Seedling height for each plot was determined (6-node stage for peas; 5-node stage for lentils). For each row, ten seedlings were randomly selected and the distance from the first node to the terminal branch of each seedling was measured.\n(§5) Differences between treatments for incidence of damping-off, seedling emergence and seedling height data were analyzed for statistical significance using analysis of variance (ANOVA) and means of treatments for each set of data were separated using Duncan's multiple range test at the P=0.05 level. All statistical analyses were done using SAS Statistical Analysis Software, Version 8.2 (SAS Institute Inc., Cary, N.C. 2001)."}, "Pythium spp. [2]": {"system": "Pythium spp.", "experiment": "Seed treatment of sugar beet, field naturally infested with Pythium spp. (2001 field experiments)", "settings": "4 weeks after planting", "description": "(§6) The selected strains of R. leguminosarum bv. viceae (R12, R20, and R21) effective against Pythium damping-off of sugar beet in indoor experiments were tested for control of damping-off of sugar beet and field pea in fields naturally infested with Pythium spp. at the Lethbridge Research Centre, Alberta. […] (Bardin et al. 2003). The seeds were coated with the bacterial slurry as described previously using 2.4 and 9.5 mL bacterial slurry/100 seeds of sugar beet and field pea, respectively. The seeds were dried overnight at room temperature on a metallic mesh, which was placed on a paper towel to absorb the excess slurry. The number of bacteria coated onto the seeds was similar for the four bacterial strains, ranging from 1.4×10^6±0.2×10^6 to 2.3×10^7±0.2×10^7 cfu/seed for sugar beets and 3.0×10^7±0.3×10^7 to 1.2×10^8±0.4×10^8 cfu/seed for field peas. The coated seeds were then stored at 4° C. until planting. Bacterial counts on the seeds were determined by vortexing five coated seeds in 5 mL of distilled sterile water for 30 seconds, and by plating serial dilutions on TY agar medium in Petri dishes for Rhizobium strains and on PDA in Petri dishes for P. fluorescens. […] Seedling emergence was recorded 4 weeks after planting and was compared with the uninoculated and fungicide controls. […]"}, "Pythium spp. [3]": {"system": "Pythium spp.", "experiment": "Seed treatment of field pea, field naturally infested with Pythium spp. (2001 field experiments)", "settings": "4 weeks after planting", "description": "as §6"}, "[4]": {"system": "Pythium spp. (predominantly Pythium sp. ‘group G’)", "experiment": "Seed treatment of lentil cv. Laird, damping-off field experiment 2004", "description": "as §1, §2, §3, §4, §5"}}, "data": [{"smiles": "CN(C)C(=S)SSC(=S)N(C)C", "note": "[Thiram]", "values": [{"measurement": "Plant Height (cm)", "setting": "[1]; control 11.1", "value": 14.6, "unit": "cm"}, {"measurement": "Plant Height (cm)", "setting": "[1]; control 11.1, listed as Fungicide (Thiram)", "value": 14.6, "unit": "c cm"}, {"measurement": "Damping-off (%) Post-emergent", "setting": "[1]; control 0.2", "value": 0.6, "unit": "%"}, {"measurement": "Final Stand (%)", "setting": "[1]; control 37.8", "value": 79.1, "unit": "c %"}, {"measurement": "Damping-off (%) by Pythium", "setting": "[1]; control 55.4, listed as Fungicide (Thiram)", "value": 16.7, "unit": "c %"}, {"measurement": "Damping-off (%) by Pythium", "setting": "[1]; control 55.4, listed as fungicide", "value": 16.7, "unit": "%"}, {"measurement": "Damping-off (%) Pre-emergent", "setting": "[1]; control 62.0", "value": 20.3, "unit": "%"}, {"measurement": "Damping-off (%) Pre-emergent", "setting": "[1]; control 62.0, listed as Fungicide (Thiram)", "value": 20.3, "unit": "c %"}, {"measurement": "Emergence (%) Sugar beet (Beta vulgaris) August 2001", "setting": "Pythium spp. [2]; untreated control 6.5", "value": 27.0, "unit": "a %"}, {"measurement": "Emergence (%) Sugar beet (Beta vulgaris) May 2001", "setting": "Pythium spp. [2]; untreated control 10.0", "value": 28.6, "unit": "a %"}, {"measurement": "Emergence (%) Pea (Pisum sativum) August 2001", "setting": "Pythium spp. [3]; untreated control 12.8", "value": 48.3, "unit": "a %"}, {"measurement": "Emergence (%) Pea (Pisum sativum) May 2001", "setting": "Pythium spp. [3]; untreated control 41.4", "value": 71.4, "unit": "a %"}, {"measurement": "Plant Height (cm)", "setting": "[4]; 5-node stage (4 weeks after planting), control 11.2", "value": 11.4, "unit": "a cm"}, {"measurement": "Damping-off (%) Post-emergent", "setting": "[4]; control 2.7", "value": 2.6, "unit": "%"}, {"measurement": "Damping-off (%) by Pythium", "setting": "[4]; control 35.3, listed as Fungicide (Thiram)", "value": 22.8, "unit": "d %"}, {"measurement": "Damping-off (%) by Pythium", "setting": "[4]; control 35.3, listed as fungicide", "value": 22.8, "unit": "%"}, {"measurement": "Damping-off (%) Pre-emergent", "setting": "[4]; control 46.3", "value": 34.2, "unit": "%"}, {"measurement": "Damping-off (%) Pre-emergent", "setting": "[4]; control 46.3, listed as Fungicide (Thiram)", "value": 34.2, "unit": "c %"}, {"measurement": "Final Stand (%)", "setting": "[4]; control 51.0", "value": 63.2, "unit": "d %"}]}]}
